SMILES	melting point
CC1(C)OC(=S)Nc2ccc(-c3cccc([N+](=O)[O-])c3)cc21 [Example 50, 4,4-Dimethyl-6-(3-nitrophenyl)-1,4-dihydro-2H-3,1-benzoxazine-2-thione]	224 to 226 °C
CC1(C)OC(=S)Nc2ccc(-c3cncc(Br)c3)cc21 [Example 26, 6-(5Bromopyridin-3-yl)-4,4-dimethyl-1,4-dihydro-2H-3,1-benzoxazine-2-thione]	252 to 253 °C
COc1cccc(-c2ccc3c(c2)C(C)(C)OC(=S)N3)c1 [Example 52, 6-(3-Methoxyphenyl)-4,4-dimethyl-1,4-dihydro-2H-3,1-benzoxazine-2-thione]	142 to 143 °C
CC1(C)OC(=S)Nc2ccc(-c3ccccc3Cl)cc21 [Example 53, 6-(2-Chlorophenyl)-4,4-dimethyl-1,4-dihydro-2H-3,1-benzoxazine-2-thione]	171 to 172 °C
CC1(C)OC(=S)Nc2ccc(-c3ccc(F)c(F)c3)cc21 [Example 45, 6-(3,4-Difluorophenyl)-4,4-dimethyl-1,4-dihydro-2H-3,1-benzoxazine-2-thione]	209 to 211 °C
CC1(C)OC(=S)Nc2ccc(-c3cccc(F)c3F)cc21 [Example 48, 6-(2,3-Difluorophenyl)-4,4-dimethyl-1,4-dihydro-2H-3,1-benzoxazine-2-thione]	197 to 198 °C
CC1(c2ccccc2)OC(=S)Nc2ccc(-c3cccc(Cl)c3)cc21 (stereo not drawn) [Example 36, 6-(3-Chlorophenyl)-4-methyl-4-phenyl-1,4-dihydro-2H-3,1-benzoxazine-2-thione]	202 to 203 °C
N#Cc1ccc(-c2ccc3c(c2)C2(CCCCC2)OC(=S)N3)s1 [Example 60, 5-(1,2-Dihydro-2-thioxospiro[4H-3,1-benzoxazine-4,1-cyclohexan]-6yl)-2-thiophenecarbonitrile]	232 to 233 °C
C=CCC1(C)OC(=S)Nc2ccc(-c3cccc(Cl)c3)cc21 (stereo not drawn) [Example 37, 4-Allyl-6-(3-chlorophenyl)-4-methyl-1,4-dihydro-2H-3,1-benzoxazine2-thione]	150 to 151 °C
CC1(C)OC(=S)Nc2ccc(-c3ccc(F)cc3)cc21 [Example 46, 6(4-Fluorophenyl)-4,4-dimethyl-1,4-dihydro-2H-3,1-benzoxazine-2-thione]	221 to 223 °C
CC1(C)OC(=S)Nc2ccc(-c3cccc(F)c3)cc21 [Example 42, 6-(3-Fluorophenyl)-4,4-dimethyl-1,4-dihydro-2H-3,1-benzoxazine-2-thione]	194 to 195 °C
N#Cc1cc(-c2ccc3c(c2)C2(CCCCC2)OC(=S)N3)cs1 [Example 23, 4-(1,2-Dihydro-2-thioxospiro[4H-3,1-benzoxazin-4,1-cyclohexan]-6-yl)-2-thiophenecarbonitrile]	225 to 227 °C
CC1(C)OC(=S)Nc2ccc(Br)cc21 [Example 10, 6-Bromo-4,4-dimethyl-1,4-dihydro-benzo[d][1,3]oxazin-2-thione]	221 to 222.5 °C
CCC1(CC)OC(=S)Nc2ccc(-c3cccc([N+](=O)[O-])c3)cc21 [Example 35, 4,4Diethyl-6-(3-nitrophenyl)-1,4-dihydro-2H-3,1-benzoxazine2-thione]	180 to 181 °C
N#Cc1cccc(-c2ccc3c(c2)C2(CCCCC2)OC(=S)N3)c1 [Example 58, 3(1,2-Dihydro-2-thioxospiro[4H-3,1-benzoxazine4,1-cyclohexan]-6-yl)benzonitrile]	222 to 224 °C
CC1(C)OC(=S)Nc2ccc(-c3ccc(F)c(Cl)c3)cc21 [Example 61, 6-(3-Chloro-4-fluorophenyl)-4,4-dimethyl-1,4-dihydro-2H-3,1-benzoxazine-2-thione]	196 to 197 °C
N#Cc1cc(F)cc(-c2ccc3c(c2)C2(CCCCC2)OC(=S)N3)c1 [Example 30, 3-(1,2-Dihydro-2-thioxospiro[4H-3,1-benzoxazine-4,1-cyclohexan]-6-yl)-5-fluorobenzonitrile]	235 to 237 °C
CC1(C)OC(=S)Nc2ccc(-c3ccccc3F)cc21 [Example 44, 6-(2-Fluorophenyl)-4,4-dimethyl-1,4-dihydro-2H-3,1-benzoxazine-2-thione]	171 to 173 °C
CC1(C)OC(=S)Nc2ccc(-c3cc(F)cc(F)c3)cc21 [Example 39, 6-(3,5-Difluorophenyl)-4,4-dimethyl-1,4-dihydro-2H-3,1-benzoxazine-2-thione]	224 to 225 °C
CC1(C)OC(=S)Nc2ccc(-c3cc(F)cc(Br)c3)cc21 [Example 55, 6-(3-Bromo-5-fluorophenyl)-4,4-dimethyl-1,4-dihydro-2H-3,1-benzoxazine-2-thione]	221 to 222 °C
CC1(C)OC(=S)Nc2c(Br)cc(-c3cc(F)cc(C#N)c3)cc21 [Example 49, 3-(8-Bromo-4,4-dimethyl-2-thioxo-1,4-dihydro-2H-3,1-benzoxazin-6-yl)-5-fluorobenzonitrile]	216 to 217 °C
CC1OC(=S)Nc2ccc(-c3cccc(F)c3)cc21 (stereo not drawn) [Example 15, 6-(3-fluorophenyl)-4-methyl-1,4-dihydro-2H-3,1-benzoxazine-2-thione]	173 to 174 °C
CC1(C)OC(=S)Nc2ccc(-c3cc(Cl)cc(Cl)c3)cc21 [Example 32, 6-(3,5-Dichlorophenyl)-4,4-dimethyl-1,4-dihydro-2H-3,1-benzoxazine-2-thione]	206 to 208 °C
CC1(C)OC(=S)Nc2ccc(-c3cccc(Br)c3)cc21 [Example 65, 6-(3-Bromophenyl)-4,4-dimethyl-1,4-dihydro-2H-3,1-benzoxazine-2-thione]	191 to 193 °C
CC(C)(C)OC(=O)n1c(C#N)ccc1-c1ccc2c(c1)C(C)(C)OC(=S)N2 [Example 17, tert-Butyl 2-cyano-5-(4,4-dimethyl-2-thioxo-1,4-dihydro-2H-3,1-benzoxazin-6-yl)-1H-pyrrole-1-carboxylate]	165 to 167 °C
CC1(C)OC(=S)Nc2ccc(-c3cc(Br)cc(OC(F)(F)F)c3)cc21 [Example 29, 6-(3-Bromo-5trifluoromethoxyphenyl)-4,4-dimethyl-1,4-dihydro-2H-3,1-benzoxazine-2-thione]	192 to 193 °C

Now from value to compound:

melting point	SMILES
212 to 213 °C	CCn1c(C#N)ccc1-c1ccc2c(c1)C(C)(C)OC(=S)N2 [Example 23, 5-(4,4-dimethyl-2-thioxo-1,4-dihydro-2H-3,1-benzoxazin-6-yl)-1-ethyl-1H-pyrrole-2-carbonitrile]
249 to 251 °C	CC1(C)OC(=S)Nc2ccc(-c3cc(Cl)cc(C#N)c3)cc21 [Example 38, 3-Chloro-5-(4,4-dimethyl-2-thioxo-1,4-dihydro-2H-3,1-benzoxazin-6-yl)benzonitrile]
200 °C (dec.)	CC1(C)OC(=S)Nc2ccc(-c3ccc(C#N)o3)cc21 [Example 34, 5-(4,4-Dimethyl-2-thioxo-1,4-dihydro-2H-3,1-benzoxazin-6-yl)-2-furonitrile]
258 to 259 °C	CC1(C)OC(=S)Nc2ccc(-c3cc(C#N)cs3)cc21 [Example 22, 5-(4,4-Dimethyl-2-thioxo-1,4-dihydro-2H-benzo[d][1,3]oxazin-6-yl)thiophene-3-carbonitrile]
170 to 171 °C	COc1cc(F)cc(-c2ccc3c(c2)C(C)(C)OC(=S)N3)c1 [Example 40, 6-(3-Fluoro-5methoxyphenyl)-4,4-dimethyl-1,4-dihydro-2H-3,1-benzoxazine-2-thione]
214 to 216 °C	CC1(C)OC(=S)Nc2ccc(-c3coc(C#N)c3)cc21 [Example 63, 4-(4,4-Dimethyl-2-thioxo-1,4-dihydro-2H-3,1-benzoxazin-6-yl)-2-furonitrile]
183 to 184 °C	Cc1cc(Br)cc(-c2ccc3c(c2)C(C)(C)OC(=S)N3)c1 [Example 28, 6-(3-Bromo-5-methylphenyl)-4,4-dimethyl-1,4-dihydro-2H-3,1-benzoxazine-2-thione]
230 to 231 °C	Cc1cc(C#N)cc(-c2ccc3c(c2)C(C)(C)OC(=S)N3)c1 [Example 31, 3-(4,4-Dimethyl-2-thioxo-1,4-dihydro-2H-3,1-benzoxazin-6-yl)-5-methylbenzonitrile]
174 to 175 °C	CCCCc1cc(C#N)sc1-c1ccc2c(c1)C(C)(C)OC(=S)N2 [Example 64, 4-Butyl-5-(4,4-dimethyl-2-thioxo-1,4-dihydro-2H-3,1-benzoxazin-6-yl)thiophene-2-carbonitrile]
215 to 217 °C	CC1(C)OC(=S)Nc2ccc(-c3cccc(CC#N)n3)cc21 [Example 19, [6-(4,4-dimethyl-2-thioxo-1,4-dihydro-2H-3,1-benzoxazin-6-yl)pyridin-2-yl]acetonitrile]
261 to 262 °C	CC1(C)OC(=S)Nc2ccc(-c3ccc(C#N)[nH]3)cc21 [Example 18, 5(4,4-Dimethyl-2-thioxo-1,4-dihydro-2H-3,1-benzoxazin-6-yl)-1H-pyrrole-2-carbonitrile]
199 to 201 °C	Cc1cc(C#N)sc1-c1ccc2c(c1)C1(CCCCC1)OC(=S)N2 [Example 59, 5-(1,2-Dihydro-2-thioxospiro [4H-3,1-benzoxazine-4,1-cyclohexan]-6-yl)-4-methyl-2-thiophenecarbonitrile]
174 to 175 °C	CCCc1cc(C#N)sc1-c1ccc2c(c1)C(C)(C)OC(=S)N2 [Example 62, 5-(4,4-Dimethyl-2-thioxo-1,4-dihydro-2H-3,1-benzoxazin6-yl)-4-propylthiophene2-carbonitrile]
201 to 202 °C	COc1cc(C#N)cc(-c2ccc3c(c2)C(C)(C)OC(=S)N3)c1 [Example 41, 3-(4,4-Dimethyl-2-thioxo-1,4-dihydro2H-3,1-benzoxazin-6-yl)-5-methoxybenzonitrile]
194 to 195 °C	CC1(C)OC(=S)Nc2ccc(-c3sccc3C#N)cc21 [Example 66, 2-(4,4-Dimethyl-2-thioxo-1,4-dihydro-2H-3,1-benzoxazin-6-yl)thiophene-3-carbonitrile]
242 to 244 °C	CC1(C)OC(=S)Nc2ccc(-c3ccc(C#N)s3)cc21 [Example 56, 5-(4,4-Dimethyl-2-thioxo-1,4-dihydro-2H-3,1-benzoxazin-6-yl)thiophene-2-carbonitrile]

From patent US6436929B1 (Wyeth, priority 1999, dated 2002)
